Measured values as given in patent US20110136665A1.

Tests used:
Leptosphaeria nodorum = experiment: Activity against Septoria nodorum blotch of wheat caused by Leptosphaeria nodorum
Method: (§1) The mixture was then made up with water to 100 ml.
The next day, the pots were inoculated with an aqueous spore suspension of Leptosphaeria nodorum (syn. Stagonospora nodorum, Septoria nodorum). The plants were then placed in a chamber at 20° C. and maximum atmospheric humidity.

Alternaria solani = experiment: Persistency against early blight on tomatoes caused by Alternaria solani, 5 day protective treatment; details: tomato
Method: as §1
To test for persistency, the leaves were infected with an aqueous spore suspension of Alternaria solani in a 2% strength biomalt solution having a density of 0.17×10^6 spores/ml only after 5 days. The plants were then placed in a water-vapor-saturated chamber at temperatures between 20 and 22° C.
Evaluation was carried out analogously to Example 1.

SMILES | Efficacy in % of the untrated control (Leptosphaeria nodorum; 0.4 ppm in spray liquor) | Efficacy in % of the untrated control (Leptosphaeria nodorum; 0.8 ppm in spray liquor) | Efficacy in % of the untrated control (Leptosphaeria nodorum; 1.6 ppm in spray liquor) | Efficacy in % of the untrated control (Alternaria solani; 0.8 ppm in spray liquor) | Efficacy in % of the untrated control (Alternaria solani; 1.6 ppm in spray liquor) | Efficacy in % of the untrated control (Alternaria solani; 3.1 ppm in spray liquor) | Efficacy in % of the untrated control (Alternaria solani; 6.25 ppm in spray liquor) | Efficacy in % of the untrated control (Alternaria solani; 25 ppm in spray liquor) | Efficacy in % of the untrated control (Leptosphaeria nodorum; 3.1 ppm in spray liquor) | Efficacy in % of the untrated control (Leptosphaeria nodorum; 12.5 ppm in spray liquor)
CC1(C)CCC(Cc2ccc(Cl)cc2)C1(O)Cn1cncn1 (stereo not drawn) [metconazole, 5-(4-chlorobenzyl)-2,2-dimethyl-1-[1,2,4]triazol-1-ylmethylcyclopentanol] | 0% | 0% | 56% | – | – | – | – | – | – | –
Fc1ccc([C@]2(Cn3cncn3)O[C@H]2c2ccccc2Cl)cc1 (racemic) [epoxiconazole, (2RS,3SR)-1-[3-(2-chlorophenyl)-2,3-epoxy-2-(4-fluorophenyl)propyl]-1H-1,2,4-triazole] | 0% | 0% | 33% | 0% | 0% | 0% | 0% | 0% | – | –
O=C(Nc1ccccc1-c1ccc(Cl)cc1)c1cccnc1Cl [boscalid, 2-chloro-N-(4′-chlorobiphenyl-2-yl)nicotinamide] | – | – | 0% | – | – | – | 0% | – | 11% | 33%
